Experimental data from patent publication US10766914B2, “DNA alkylating agents” (OBI PHARMA, INC., priority 2015, dated 2020).

How the values were obtained:
[1] = test system: SNU-475; assay: TH2870 sensitivity in liver cancer cells; format: cell-based, human; details: AKR1C3 expression ++++
[2] = test system: LIXC-086; assay: TH2870 sensitivity in liver cancer cells; format: cell-based, human; details: AKR1C3 expression ++++
[3] = test system: LIXC-011; assay: TH2870 sensitivity in liver cancer cells; format: cell-based, human; details: AKR1C3 expression ++++
[4] = test system: LIXC-006; assay: TH2870 sensitivity in liver cancer cells; format: cell-based, human; details: AKR1C3 expression +++
[5] = test system: HLE; assay: TH2870 sensitivity in liver cancer cells; format: cell-based, human; details: AKR1C3 expression ++
[6] = test system: Hep 3B2.1-7; assay: TH2870 sensitivity in liver cancer cells; format: cell-based, human; details: AKR1C3 expression /
[7] = test system: SNU-398; assay: TH2870 sensitivity in liver cancer cells; format: cell-based, human; details: AKR1C3 expression /
[8] = test system: SK-HEP-1; assay: TH2870 sensitivity in liver cancer cells; format: cell-based, human
[9] = test system: DU145; assay: TH2870 sensitivity in prostate cancer cell lines; format: cell-based; details: Homo sapiens, DU-145
[10] = test system: MDA-Pca-2b; assay: TH2870 sensitivity in prostate cancer cell lines; format: cell-based; details: Homo sapiens
[11] = Example 4-B body weight change, A549 xenograft study; format: in vivo, female nude mice (nu/nu); details: 20 mg/kg ip QD × 5/wk × 2 wks
[12] = Example 4-C body weight change, A375 xenograft study; format: in vivo, female nude mice (nu/nu); details: 20 mpk, qd × 5 × 2, ip
How it was run: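 Cells in 50% Matrigel were implanted subcutaneously in the flank, and mice (10/group) were randomized at 100-150 mm3. Compounds in 5% DMSO/D5W were dosed IP QD×5/wk ×2 cycles, IP once, IP weekly ×3 wk, or IV weekly ×3 wk. Body weight and tumour volume were measured twice weekly; TGI = (1−ΔT/ΔC)×100.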

[13] = Example 4-D body weight change and lethal toxicity, A549 xenograft study; format: in vivo, female nude mice (nu/nu); details: for Lethal Tox: 10 animals per group
How it was run: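 Subcutaneous flank A549 xenografts in Matrigel; treatment from ~100 mm^3 tumors, 10 mice/group, compounds in 5% DMSO in D5W. Dosed IP daily, 5 days on, 2 off, then 5 more doses; body weight and tumor volume measured twice weekly, lethality recorded.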

[14] = Homo sapiens, read-out: RelIC50

## CC(OP(=O)(N1CC1)N1CC1)c1ccc([N+](=O)[O-])c(Oc2cccc(C(=O)N(C)C)c2)c1 (stereo not drawn) [Compound 2870]
[1]
  Max Inhibition %: 100.4%
[1]; [14]
  IC50: 8 nM
[2]
  Max Inhibition %: 92.8%
[2]; [14]
  IC50: 41 nM
[3]
  Max Inhibition %: 97.4%
[3]; [14]
  IC50: 40.8 nM
[4]
  Max Inhibition %: 71.7%
[4]; [14]
  IC50: 116 nM
[5]
  Max Inhibition %: 80.5%
[5]; [14]
  IC50: 84.2 nM
[6]
  Max Inhibition %: 8.1%
[6]; [14]
  IC50: > 1000 nM
[7]
  Max Inhibition %: 15.3%
[7]; [14]
  IC50: > 1000 nM
[8]; AKR1C3 expression /
  Max Inhibition %: 44.3%
[8]; Homo sapiens, SK-HEP1, AKR1C3 expression /, read-out: RelIC50
  IC50: > 1000 nM
[9]
  IC50: 42.9 nM
[10]
  IC50: > 300 nM
[11]
  Max. BW loss %: 1.6%
[12]
  Max. BW loss %: 0%
[13]; 20 mg/kg IP QD × 5/wk × 2 wks
  Max. BW loss %: 0.3%
  Lethal Tox: 0
[13]; 40 mg/kg IV 2/wk × 2 wks
  Max. BW loss %: 2.0%
  Lethal Tox: 1
